# Assay: gradient 5% acetonitrile 3 min, to 50% in 2 min, to 85% in 15 min, held 3 min, 100 µL/min
# Conditions: column: Zorbax Extend-C18 2.1 x 50 mm; eluents: water / acetonitrile, 0.1% formic acid
# Summary of the method: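 Pure standards were analyzed in mixtures of ~100 molecules using HPLC coupled to a quadrupole time-of-flight mass spectrometer, in both positive and negative ionization mode. Separation used a Zorbax Extend-C18 column (2.1 × 50 mm, 1.8 μm) at 100 μL/min, with water and acetonitrile each containing 0.1% formic acid. Dead and dwell volumes were 40 μL and 900 μL, and data were collected over 3 months. Retention time was read from computationally picked adduct peaks, each inspected manually.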
row,RP-LC retention time [s],SMILES
1,865,Cc1cccc(-c2noc(Cn3ccn(-c4ccccc4C)c(=O)c3=O)n2)c1
2,677,c1ccc(-c2nc3ccccn3c2Nc2ccc3c(c2)OCO3)cc1
3,618,COCc1cc(=O)n(CC(=O)Nc2cccc(F)c2)c(N)n1
4,570,O=C(NC1CCN(Cc2ccccc2)CC1)C1CCN(c2cnc3nccnc3c2)CC1
5,854,COc1ccc(N2C(=O)C(O)=C(S(=O)(=O)c3ccccc3)C2c2ccccc2)cc1 (centres undefined)
6,528,c1cc(CN2CCCCC2)ccc1CC1CCNCC1
7,618,CCCCC(=O)N1CCN(c2nc(C)cc(NCC)n2)CC1
8,1050,C=CCn1nnc(NCc2ccc(-c3cccc(Cl)c3)o2)n1
9,723,ClCC(CNCc1ccccc1)c1ccccc1 (centres undefined)
10,798,O=C(Nc1nc(-c2ccc3c(c2)OCO3)cs1)c1ccco1
11,722,COc1ccc(NC(=O)Cn2cccc(-c3nc(-c4ccc(OC)c(OC)c4)no3)c2=O)cc1OC
12,638,Cc1cc(C)n(CCNC(=O)c2ccc3nsnc3c2)n1
13,888,O=C(NCc1ccc(F)cc1)c1nnc(-c2ccc(S(=O)(=O)N3CCCC3)cc2)o1
14,811,CCCN1CCN(C(=O)c2ccc(CN3CCN(Cc4ccccc4)C(=O)C3=O)cc2)CC1
15,653,Cc1ccc(C)c(N2CCN(C(=O)c3nc4cccnc4n(C)c3=O)CC2)c1
16,875,CCOc1ccc(NC(=O)c2cnc(-c3ccc(OC)cc3)nc2-c2ccncc2)cc1
17,904,Cc1cc(-c2nnc(C3CCC3)o2)c(C)n1CC(=O)NCc1ccc(F)c(Cl)c1
18,1080,CN(C)S(=O)(=O)c1ccc(-c2nnc(C(=O)N3CCC(Cc4ccccc4)CC3)o2)cc1
19,931,COc1ccc(C2CC(=O)N(c3ccc(F)cc3F)C(=O)C2)cc1
20,931,O=C(NCc1c(F)cccc1Cl)C(=O)c1c[nH]c2ccccc12
21,1170,CCOc1ccccc1-c1nc(Cc2noc(-c3ccccc3)n2)c(C)o1
22,891,CN1C(=O)c2ccccc2Oc2ccc(C(=O)NC3CCCCC3)cc21

row,RP-LC retention time [s],SMILES
1,823,O=C(Nc1ccc(-n2cnnn2)cc1)c1ccc(OCc2nc(C3CC3)cs2)cc1
2,667,CCc1ccc(S(=O)(=O)Nc2ccc(-c3cn4cccc(C)c4n3)cc2)cc1
3,941,COc1ccc(CCc2nc3nccc(-c4ccc(OC)cc4F)n3n2)cc1
4,722,Cn1c(C2CCN(S(=O)(=O)c3ccc(F)c(Cl)c3)CC2)cc(=O)n2nccc12
5,966,CCn1c(=O)c(C)nc2cc(-c3noc(C4CC(=O)N(c5cccc(Cl)c5)C4)n3)ccc21 (centres undefined)
6,737,CC1CCC(C(=O)Nc2ccc3c(c2)n(C)c(=O)c(=O)n3C)CC1 (centres undefined)
7,686,CCCCN1CCN(c2ccc(-c3csc(S(=O)(=O)N4CCCCC4)c3)nn2)CC1
8,572,Cc1nc(-c2nnc(NC(=O)C3CCN(S(C)(=O)=O)CC3)o2)cs1
9,678,O=C(CCc1c(-c2ccc(Br)cc2)nc2ccccn12)NCCc1ccco1
10,602,CC(C)NC(=O)c1ccc2c(c1)nc(CN(C)C(=O)NCc1ccco1)n2C
11,599,CCCCN1CCN(C(=O)C2CC(=O)N(c3ccc4c(c3)CCN4C(=O)C3CC3)C2)CC1 (centres undefined)
12,941,CCOC(=O)c1cccc(Nc2c(-c3ccc(C)cc3)nc3cnccn23)c1
13,972,Cc1ccc(NC(=O)N(C)CCc2noc(COc3cccc(C)c3)n2)cc1
14,643,O=C(Nc1nnc(C2=COCCO2)o1)C1CCN(S(=O)(=O)c2cccs2)CC1
15,812,CCc1ccc(C2=C(C)C(N3CCC(C(=O)NC(C)C)CC3)=NS2(=O)=O)cc1
16,739,O=C(NC1CC1)[C@@H]1C[C@H](Oc2ccccc2)CN1C(=O)c1n[nH]c2ccccc12
17,862,CCSC1=C(C#N)C(c2ccccc2Cl)C(C(=O)Nc2ccccc2C)=C(C)N1 (centres undefined)
18,862,CCN(C(=O)Cn1nc2cc(-c3ccccc3)nc(C)n2c1=O)c1cccc(C)c1
19,828,O=c1n(Cc2ccc3c(c2)OCO3)nc2c(S(=O)(=O)N3CCCCC3)cccn12
20,887,Cc1ccc(-c2cn3c(CC(=O)NCCCc4ccccc4)csc3n2)cc1C
21,1150,O=S(=O)(c1cccs1)N1CCc2nc(-c3ccc(Cl)cc3)ncc2C1
22,886,Cc1ccc(NC(=O)Cn2c(=O)n(-c3ccccc3)c(=O)c3c2cc(C)n3C)cc1C

row,RP-LC retention time [s],SMILES
1,1230,Cc1nc(-c2cccc(-c3noc(-c4cncc(Br)c4)n3)c2)cs1
2,896,Cn1cc(SCC(=O)Nc2cccc(F)c2)c2ccccc21
3,780,O=C(Cc1ccc(F)cc1)NC(c1ccccc1)c1nnc(N2CCCC2)o1 (centres undefined)
4,984,O=c1n(Cc2ccccc2F)nc2ccc(S(=O)(=O)N3CCc4ccccc4C3)cn12
5,722,CCOC(=O)c1noc2nc(C)nc(NCc3ccc(CC)cc3)c12
6,854,Cc1cc(C)cc(C(=O)NCc2nn(C)c3ccccc23)c1
7,558,CCOc1ccc(CC(=O)NCC2CCN(Cc3ccco3)CC2)cc1
8,572,Cc1cc(=O)oc2c(C)c(OCC(O)CN3CCN(c4ccccn4)CC3)ccc12 (centres undefined)
9,837,COCCn1cnc2c(-c3ccccc3)cn(CC(=O)NC3CCCC3)c2c1=O
10,852,O=C(Nc1ccccc1Cl)N(CCc1ccccc1)Cc1ccccn1
11,601,CCOC(=O)c1cc(S(=O)(=O)NCCC(=O)N2CCN(c3ccccn3)CC2)cn1C
12,703,Cc1nc(-c2ccncc2)nc2c1CC(=O)N2C1CCCC1
13,977,Cc1ccccc1-c1nnc(CSc2nnc(NC(=O)Cc3ccccc3Cl)s2)o1
14,643,O=C(O)c1ccc(N2CCCC(CN3CCCC3)C2)c(NS(=O)(=O)c2ccccc2)c1 (centres undefined)
15,1100,Fc1ccc(Cn2cccc2-c2nc(-c3ccncc3)no2)cc1
16,630,CCCN(CCC)C(=O)Cn1c(CN(C)C(C)=O)nc2ccccc21
17,591,O=C(CC1c2ncccc2C(=O)N1c1ccccc1)N1CCN(C2CCCCC2)CC1 (centres undefined)
18,674,CCOc1ccc(NC(=O)C2CCCN(c3nnc4ccccn34)C2)cc1 (centres undefined)
19,635,CC(=O)N1CCc2[nH]c3ccc(C(=O)NCc4ccc(N5CCOCC5)cc4)cc3c2C1
20,966,Cc1nc(-c2ccccc2)cc2nn(CC(=O)N3CCc4ccccc43)c(=O)n12
21,1050,O=C1CCC(c2nc(-c3ccc4c(c3)OCO4)no2)=NN1Cc1ccccc1
22,944,O=C(Nc1ccc(C2(C(=O)N3CCN(c4ccccc4F)CC3)CCC2)cc1)C1CC1

row,RP-LC retention time [s],SMILES
1,553,O=c1c(NCCc2ccncc2)nc2ccncc2n1Cc1ccccc1
2,944,COc1cc(OC)c(NC(=O)c2cnn(-c3ccccc3)c2)cc1Cl
3,855,COc1cc2c(cc1CNC(=O)c1ccc3c(c1)CC(C)O3)OCCCO2 (centres undefined)
4,968,Cc1cc(C)n(-c2nc(CC(=O)N3CCN(c4ccc(F)cc4)CC3)cs2)n1
5,861,COc1ccc(CNC(=O)CSc2nccc(N3CCN(c4cc(C)ccc4C)CC3)n2)cc1
6,869,COC(=O)C1=CN(c2ccc(C)cc2C)c2ccccc2S1(=O)=O
7,1170,CC1=NS(=O)(=O)N(Cc2ccccc2)C=C1C(=O)OCc1ccc(C)cc1
8,929,COc1ccc(NC2=NS(=O)(=O)C(c3ccc(F)cc3)=C2C)c(OC)c1
9,632,CC(C)CN1C(=O)c2ccccc2C(C(=O)NCc2ccccn2)C1c1cccs1 (centres undefined)
10,892,CCOc1ccc(S(=O)(=O)N2CCCN(c3ccc(=O)n(-c4ccccc4)n3)CC2)cc1
11,698,CCn1nccc1C(=O)NCC1Cn2cccc2C(=O)N1CC(C)C (centres undefined)
12,921,COc1ccc(NC(=O)N2CC(C)Oc3ccc(C)cc32)cc1OC (centres undefined)
13,990,CCOC(=O)c1ccc(Nc2c(CC)c(C)nc3nc(-c4ccccc4)nn23)cc1
14,826,CCOC(=O)c1nc(Nc2cccc(C)c2C)c2ccccc2n1
15,684,COc1cc(OC)cc(C(=O)N2C[C@@H]3C[C@H](NC(=O)c4ccccc4)[C@H]2C3)c1
16,943,CCOc1ccccc1-c1csc(NC(=O)Cc2csc(C)n2)n1
17,712,O=C(c1ccc(OCC2CCCN(C(=O)c3ccco3)C2)cc1)N1CCOCC1 (centres undefined)
18,760,COc1cccc(NC(=O)c2cc3c(s2)CN(C2CC2)C3)c1
19,686,O=C(Cn1cnc2nc(N3CCCC(C(=O)NC4CC4)C3)sc2c1=O)Nc1ccccc1Cl (centres undefined)
20,578,CCOC(=O)C1=C(CN(C)Cc2ccccc2)NC(=O)NC1c1ccc(OC)cc1 (centres undefined)
21,705,CCOCCCNCc1ccc(-c2ccc(OC)c(Cl)c2)o1
22,596,CSc1ccccc1CN1CCC(CNC(=O)C2(c3ccc(F)cc3)CC2)CC1

row,SMILES,RP-LC retention time [s]
1,COc1ccc2c(c1)C1(CCN(S(=O)(=O)c3cccs3)C1)C(=O)N2 (centres undefined),790
